Source: patent US20250051338A1, “TYK2 DEGRADERS AND USES THEREOF” (Kymera Therapeutics, Inc., priority 2021, published 2025)

How the values were obtained:
Assay type in all cases: cell-based
[1] = molecular target: T1, TYK2 (Homo sapiens, UniProt P29597); assay: TYK2 degradation MSD assay in human PBMC cells; design: endogenous in cells; host or cells: human PBMC; settings: 4 to 24 hours incubation, read-out: TYK2 MSD DC50 rating in human PBMC
Method in brief: (§1)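 0.4 million cells/well; cpd 9-dose 1:3 titration, top 1–10 μM; 4–24 h, 37° C, 5% CO2; RIPA lysis; TYK2 capture/detection sandwich on MSD, SULFO-TAG anti-rabbit secondary; DC50 via 4-parameter fit.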

[2] = molecular target: T1, TYK2; assay: TYK2 degradation MSD assay in EBV-B cells; design: endogenous in cells; host or cells: EBV-B cells; settings: 4 to 24 hours incubation, read-out: TYK2 MSD DC50 rating in EBV-B
Method in brief: as §1

[3] = molecular target: T1, TYK2; assay: TYK2 degradation MSD assay in OCI-LY10 cells; design: endogenous in cells; host or cells: EBV-B cells; settings: 4 to 24 hours incubation, read-out: TYK2 MSD DC50 rating in OCI-LY10
Method in brief: as §1

T1 sequence (P29597 whole entry): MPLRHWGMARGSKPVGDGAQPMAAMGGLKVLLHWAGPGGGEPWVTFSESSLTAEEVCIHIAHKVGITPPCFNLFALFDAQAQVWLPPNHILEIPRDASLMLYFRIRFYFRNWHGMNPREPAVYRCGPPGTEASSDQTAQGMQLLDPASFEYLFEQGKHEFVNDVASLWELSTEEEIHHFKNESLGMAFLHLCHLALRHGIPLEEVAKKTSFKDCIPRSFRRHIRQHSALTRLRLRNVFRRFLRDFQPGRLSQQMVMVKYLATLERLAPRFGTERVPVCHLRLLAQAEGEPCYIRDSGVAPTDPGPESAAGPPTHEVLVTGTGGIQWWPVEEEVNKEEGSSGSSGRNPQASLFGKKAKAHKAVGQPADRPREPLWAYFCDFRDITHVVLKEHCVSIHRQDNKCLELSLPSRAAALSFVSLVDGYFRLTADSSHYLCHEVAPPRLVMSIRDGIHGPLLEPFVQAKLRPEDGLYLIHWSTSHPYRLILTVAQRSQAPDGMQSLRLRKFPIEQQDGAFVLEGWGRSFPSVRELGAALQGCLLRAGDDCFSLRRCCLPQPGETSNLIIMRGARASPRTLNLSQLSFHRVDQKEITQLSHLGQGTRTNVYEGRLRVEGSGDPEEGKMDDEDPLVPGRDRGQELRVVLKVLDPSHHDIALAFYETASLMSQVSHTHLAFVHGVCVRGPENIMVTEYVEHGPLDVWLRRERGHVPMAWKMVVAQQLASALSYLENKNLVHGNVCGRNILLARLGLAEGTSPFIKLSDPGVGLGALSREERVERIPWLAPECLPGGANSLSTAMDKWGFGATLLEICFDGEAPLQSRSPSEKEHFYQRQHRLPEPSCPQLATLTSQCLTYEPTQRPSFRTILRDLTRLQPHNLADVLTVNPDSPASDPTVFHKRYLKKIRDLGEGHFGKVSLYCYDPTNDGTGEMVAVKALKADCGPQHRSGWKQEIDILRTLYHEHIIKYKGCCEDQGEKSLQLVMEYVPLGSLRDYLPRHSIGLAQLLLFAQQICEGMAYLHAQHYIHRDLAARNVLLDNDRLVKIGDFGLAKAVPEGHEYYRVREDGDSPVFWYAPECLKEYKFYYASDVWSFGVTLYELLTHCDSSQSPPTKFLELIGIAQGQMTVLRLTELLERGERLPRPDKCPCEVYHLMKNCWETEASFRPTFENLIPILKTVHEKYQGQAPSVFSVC

| DC50 [1] | DC50 [2] | DC50 [3] | SMILES |
| --- | --- | --- | --- |
| > 100 nM | < 1 nM | > 100 nM | CNc1cc(Nc2cccn(C3CCN(C(=O)N(C)CC4CCN(c5ccc6c(c5)n(C)c(=O)n6C5CCC(=O)NC5=O)CC4)CC3)c2=O)nn2c(C(=O)N[C@@H]3C[C@@H]3F)cnc12 (stereo partly drawn) [Example K398] |
| > 100 nM | 1 to 10 nM | > 100 nM | CNc1cc(Nc2cccn(C3CCN(C(=O)NCCCCCCCCCCc4ccc5c(c4)n(C)c(=O)n5C4CCC(=O)NC4=O)CC3)c2=O)nn2c(C(=O)N[C@@H]3C[C@@H]3F)cnc12 (stereo partly drawn) [Example K399] |
| > 100 nM | > 100 nM | > 100 nM | Cc1cc(C)cc(Nc2cc(NCCCCCCCCc3ccc4c(c3)n(C)c(=O)n4C3CCC(=O)NC3=O)c3ncc(C(=O)N[C@@H]4C[C@@H]4F)n3n2)c1 (stereo partly drawn) [Example K400] |
| > 100 nM | > 100 nM | > 100 nM | Cc1cc(C)cc(Nc2cc(NCCCCCCc3ccc4c(c3)n(C)c(=O)n4C3CCC(=O)NC3=O)c3ncc(C(=O)N[C@@H]4C[C@@H]4F)n3n2)c1 (stereo partly drawn) [Example K401] |
| > 100 nM | > 100 nM | > 100 nM | Cc1cc(C)cc(Nc2cc(NCCCCc3ccc4c(c3)n(C)c(=O)n4C3CCC(=O)NC3=O)c3ncc(C(=O)N[C@@H]4C[C@@H]4F)n3n2)c1 (stereo partly drawn) [Example K402] |
| > 100 nM | > 100 nM | > 100 nM | Cn1c(=O)n(C2CCC(=O)NC2=O)c2cccc(C3CN(C4CCN(Cc5ccc(-c6cccc(Nc7ccc8ncc(C(=O)NC9CC9)n8n7)c6)nc5)CC4)C3)c21 (stereo not drawn) [Example K403] |
| > 100 nM | > 100 nM | > 100 nM | Cn1c(=O)n(C2CCC(=O)NC2=O)c2ccc(C#CC3CCN(Cc4ccc(-c5cccc(Nc6ccc7ncc(C(=O)NC8CC8)n7n6)c5)nc4)CC3)cc21 (stereo not drawn) [Example K404] |
| > 100 nM | > 100 nM | > 100 nM | Cn1c(=O)n(C2CCC(=O)NC2=O)c2ccc(C3CN(C4CCN(Cc5ccc(-c6cccc(Nc7ccc8ncc(C(=O)NC9CC9)n8n7)c6)nc5)CC4)C3)cc21 (stereo not drawn) [Example K405] |
| > 100 nM | > 100 nM | > 100 nM | Cn1c(=O)n(C2CCC(=O)NC2=O)c2ccc(N3CCN(Cc4ccc(-c5cccc(Nc6ccc7ncc(C(=O)NC8CC8)n7n6)c5)nc4)CC3)cc21 (stereo not drawn) [Example K406] |
| > 100 nM | > 100 nM | < 1 nM | CNc1cc(Nc2cccn(-c3ccc(C(=O)N4CCC(OCCCc5ccc6c(c5)n(C)c(=O)n6C5CCC(=O)NC5=O)CC4)cn3)c2=O)nn2c(C(=O)N[C@@H]3C[C@@H]3F)cnc12 (stereo partly drawn) [Example K407] |
| > 100 nM | > 100 nM | < 1 nM | CNc1cc(Nc2cccn(-c3ccc(C(=O)N4CCC(CN5CCC(c6ccc7c(c6)n(C)c(=O)n7C6CCC(=O)NC6=O)CC5)CC4)cn3)c2=O)nn2c(C(=O)N[C@@H]3C[C@@H]3F)cnc12 (stereo partly drawn) [Example K408] |
| > 100 nM | > 100 nM | 1 to 10 nM | CNc1cc(Nc2cccn(-c3ccc(C(=O)N4CCC5(CCN(c6cnc(C#Cc7ccc8c(c7)n(C)c(=O)n8C7CCC(=O)NC7=O)nc6)C5=O)C4)cn3)c2=O)nn2c(C(=O)N[C@@H]3C[C@@H]3F)cnc12 (stereo partly drawn) [Example K409] |
| > 100 nM | > 100 nM | < 1 nM | CNc1cc(Nc2cccn(-c3ccc(C(=O)N4CCC(N5CC(c6ccc7c(c6)n(C)c(=O)n7C6CCC(=O)NC6=O)C5)CC4)cn3)c2=O)nn2c(C(=O)N[C@@H]3C[C@@H]3F)cnc12 (stereo partly drawn) [Example K410] |
| > 100 nM | > 100 nM | > 100 nM | Cn1c(=O)n(C2CCC(=O)NC2=O)c2cccc(C#CC3CCN(Cc4ccc(-c5cccc(Nc6ccc7ncc(C(=O)NC8CC8)n7n6)c5)nc4)CC3)c21 (stereo not drawn) [Example K412] |
| > 100 nM | > 100 nM | < 1 nM | CNc1cc(Nc2cccc(-c3ccc(CN4CCC(c5ccc(-c6ccc7c(c6)n(C)c(=O)n7C6CCC(=O)NC6=O)cc5)CC4)cn3)c2)nn2c(C(=O)NC3CC3F)cnc12 (stereo not drawn) [Example K413] |
| > 100 nM | > 100 nM | < 1 nM | CNc1cc(Nc2cccc(-c3ccc(CN4CCC(N5CC(c6cccc7c6n(C)c(=O)n7C6CCC(=O)NC6=O)C5)CC4)cn3)c2)nn2c(C(=O)N[C@@H]3C[C@@H]3F)cnc12 (stereo partly drawn) [Example K414] |
| > 100 nM | 1 to 10 nM | > 100 nM | Cn1c(=O)n(C2CCC(=O)NC2=O)c2ccc(-c3ccc(N4CCN(Cc5ccc(-c6cccc(Nc7ccc8ncc(C(=O)NC9CC9)n8n7)c6)nc5)CC4)cc3)cc21 (stereo not drawn) [Example K415] |

| DC50 [1] | DC50 [2] | DC50 [3] | SMILES |
| --- | --- | --- | --- |
| > 100 nM | > 100 nM | > 100 nM | CNc1cc(Nc2cccn(-c3ccc(C(=O)N4CCC5(CN(CC#Cc6ccc7c(c6)n(C)c(=O)n7C6CCC(=O)NC6=O)C5)C4)cn3)c2=O)nn2c(C(=O)N[C@@H]3C[C@@H]3F)cnc12 (stereo partly drawn) [Example K416] |
| > 100 nM | > 100 nM | > 100 nM | CNc1cc(Nc2cccn(-c3ccc(C(=O)N4CCN(CC#Cc5ccc6c(c5)n(C)c(=O)n6C5CCC(=O)NC5=O)CC4)cn3)c2=O)nn2c(C(=O)N[C@@H]3C[C@@H]3F)cnc12 (stereo partly drawn) [Example K417] |
| > 100 nM | > 100 nM | < 1 nM | CNc1cc(Nc2cccn(-c3ccc(C(=O)N4CC5(CC(CN6CCN(c7ccc8c(c7)n(C)c(=O)n8C7CCC(=O)NC7=O)CC6)CO5)C4)cn3)c2=O)nn2c(C(=O)N[C@@H]3C[C@@H]3F)cnc12 (stereo partly drawn) [Example K418] |
| > 100 nM | > 100 nM | < 1 nM | CNc1cc(Nc2cccn(-c3ccc(C(=O)N4CC(N5CCN(c6ccc7c(c6)n(C)c(=O)n7C6CCC(=O)NC6=O)CC5)C4)cn3)c2=O)nn2c(C(=O)N[C@@H]3C[C@@H]3F)cnc12 (stereo partly drawn) [Example K419] |
| > 100 nM | > 100 nM | < 1 nM | CNc1cc(Nc2cccn(-c3ccc(C(=O)N4CC5(CN(CCC#Cc6ccc7c(c6)n(C)c(=O)n7C6CCC(=O)NC6=O)CCO5)C4)cn3)c2=O)nn2c(C(=O)N[C@@H]3C[C@@H]3F)cnc12 (stereo partly drawn) [Example K420] |
| > 100 nM | > 100 nM | 1 to 10 nM | CNc1cc(Nc2cccn(-c3ccc(C(=O)N4CCC(OCC#Cc5cccc6c5n(C)c(=O)n6C5CCC(=O)NC5=O)CC4)cn3)c2=O)nn2c(C(=O)N[C@@H]3C[C@@H]3F)cnc12 (stereo partly drawn) [Example K421] |
| > 100 nM | > 100 nM | < 1 nM | CNc1cc(Nc2cccn(-c3ccc(C(=O)N4CCC(CN5CCCN(c6ccc(-c7ccc8c(c7)n(C)c(=O)n8C7CCC(=O)NC7=O)cn6)CC5)CC4)cn3)c2=O)nn2c(C(=O)N[C@@H]3C[C@@H]3F)cnc12 (stereo partly drawn) [Example K422] |
| > 100 nM | > 100 nM | 1 to 10 nM | CNc1cc(Nc2cccn(-c3ccc(C(=O)N4CCN(C(=O)C5CC(N6CCC(OCCCc7ccc8c(c7)n(C)c(=O)n8C7CCC(=O)NC7=O)CC6)C5)CC4)cn3)c2=O)nn2c(C(=O)N[C@@H]3C[C@@H]3F)cnc12 (stereo partly drawn) [Example K423] |
| > 100 nM | > 100 nM | > 100 nM | CNc1cc(Nc2cccn(-c3ccc(C(=O)C4CCC(C5CCN(c6ccc7c(c6)n(C)c(=O)n7C6CCC(=O)NC6=O)C5)CN4)cn3)c2=O)nn2c(C(=O)N[C@@H]3C[C@@H]3F)cnc12 (stereo partly drawn) [Example K424] |
| > 100 nM | > 100 nM | > 100 nM | CNc1cc(Nc2cccn(-c3ccc(C(=O)C4CCC([C@H]5CCN(c6ccc7c(c6)n(C)c(=O)n7C6CCC(=O)NC6=O)C5)CN4)cn3)c2=O)nn2c(C(=O)N[C@@H]3C[C@@H]3F)cnc12 (stereo partly drawn) [Example K425] |
| > 100 nM | > 100 nM | > 100 nM | CNc1cc(Nc2cccn(-c3ccc(C(=O)N4CCC5(CCCN(CCc6ccc7c(c6)n(C)c(=O)n7C6CCC(=O)NC6=O)C5)C4)cn3)c2=O)nn2c(C(=O)N[C@@H]3C[C@@H]3F)cnc12 (stereo partly drawn) [Example K426] |
| > 100 nM | > 100 nM | < 1 nM | CNc1cc(Nc2cccn(-c3ccc(C(=O)N(C)C4CCC(N5CCN(c6ccc7c(c6)n(C)c(=O)n7C6CCC(=O)NC6=O)CC5)CC4)cn3)c2=O)nn2c(C(=O)N[C@@H]3C[C@@H]3F)cnc12 (stereo partly drawn) [Example K427] |
| > 100 nM | > 100 nM | < 1 nM | CNc1cc(Nc2cccn(-c3ccc(C(=O)NC4CCC(CN(C)C5CCN(Cc6ccc7c(c6)n(C)c(=O)n7C6CCC(=O)NC6=O)CC5)CC4)cn3)c2=O)nn2c(C(=O)N[C@@H]3C[C@@H]3F)cnc12 (stereo partly drawn) [Example K428] |
| > 100 nM | 1 to 10 nM | < 1 nM | CNc1cc(Nc2cccn(-c3ccc(C(=O)N4CC(N5CCN(CCc6ccc7c(c6)n(C)c(=O)n7C6CCC(=O)NC6=O)CC5)C4)cn3)c2=O)nn2c(C(=O)N[C@@H]3C[C@@H]3F)cnc12 (stereo partly drawn) [Example K429] |
| > 100 nM | 1 to 10 nM | < 1 nM | CNc1cc(Nc2cccn(-c3ccc(C(=O)N[C@H]4CC[C@H](CN5CCC6(CC5)CN(Cc5cccc7c5n(C)c(=O)n7C5CCC(=O)NC5=O)C6)CC4)cn3)c2=O)nn2c(C(=O)N[C@@H]3C[C@@H]3F)cnc12 (stereo partly drawn) [Example K430] |
| > 100 nM | > 100 nM | 1 to 10 nM | CNc1cc(Nc2cccc(-c3ccc(CN4CCC(C#Cc5cccc6c5n(C)c(=O)n6C5CCC(=O)NC5=O)CC4)cn3)c2)nn2c(C(=O)N[C@@H]3C[C@@H]3F)cnc12 (stereo partly drawn) [Example K431] |
| > 100 nM | > 100 nM | < 1 nM | CNc1cc(Nc2cccc(-c3ccc(CN4CCN(CC#Cc5cccc6c5n(C)c(=O)n6C5CCC(=O)NC5=O)CC4)cn3)c2)nn2c(C(=O)N[C@@H]3C[C@@H]3F)cnc12 (stereo partly drawn) [Example K432] |
